Test system: SD rats
Assay: Defensive withdrawal test in rats under stress (time to come out of a cylinder)
Assay type: in vivo, rat
Conditions: for antidepressant effect: same defensive withdrawal tests in SD rats as for L-isoleucine
Experimental: SD rats (10-week-old) were divided into two groups (10 rats in each group). One group (control group) was kept for 6 days with free access to food (standard AIN-76 diet manufactured by Nosan Corporation) and water. The other group (present invention group) was kept for 6 days with free access to food (standard AIN-76 diet containing 1% by mass of L-isoleucine) and water. Using these subject animals, depression-improving activity in rats under stress was tested according to the defensive withdrawal test method by Gutman, D. A. et al. (The Journal of Pharmacology and Experimental Therapeutics, 304 (2), 874 (2003)). That is, a rat (one from each group) was dropped, tail first, into an upright black cylinder 10 cm in diameter and 20 cm in length, and immediately covered with a lid. After 10 seconds, the cylinder was placed in an open field (100 cm long, 100 cm wide, and 45 cm high) made up of white acrylic boards, facing one corner, at a position 20 cm from the corner. […] The test was carried out under an illuminance of 200 1× in a soundproof room, and behavior of the rat was videotaped from above and observed using a monitor outside the soundproof room. Statistical processing was performed by two-sided Student's t-test.

Row | SMILES | time the rat took to come out of the cylinder (SD rats, 10-week-old, 6 days free access to AIN-76 diet containing 1% by mass of the amino acid, observed 5 minutes, compared to control group) | antidepressant effect
1 | CC[C@H](C)[C@H](N)C(=O)O [L-isoleucine] | significantly shorter time to come out of the cylinder | 
2 | CC(C)C[C@H](N)C(=O)O [L-leucine] |  | same antidepressant effect as that of L-isoleucine was confirmed
3 | CC(C)[C@H](N)C(=O)O [L-valine] |  | same antidepressant effect as that of L-isoleucine was confirmed
